Experimental data from ChEMBL document CHEMBL1201862, “PubChem BioAssay data set” (2004).
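How tested: cells in 96-well plates exposed to compound for 48 hours at five concentrations. GI50 marks 50% less growth.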 Calls of active or inactive are those of the source. No stated cut-off is given here; in the data, active = GI50 up to about 1.1 µM and inactive = higher.

Experiments:
Assay in all cases: inhibition of tumour cell growth, NCI panel, 48 h
CCRF-CEM = test system: CCRF-CEM
COLO 205 = test system: COLO 205
HCT-15 = test system: HCT-15
HOP-92 = test system: HOP-92
HT-29 = test system: HT-29
KM12 = test system: KM12
LOX IMVI = test system: LOX IMVI
MCF7 = test system: MCF7
MOLT-4 = test system: MOLT-4
NCI-H23 = test system: NCI-H23
NCI-H460 = test system: NCI-H460
OVCAR-8 = test system: OVCAR-8
RXF 393 = test system: RXF 393
SK-MEL-5 = test system: SK-MEL-5
SNB-19 = test system: SNB-19
SW-620 = test system: SW-620
UACC-257 = test system: UACC-257
EKVX = test system: EKVX
OVCAR-5 = test system: OVCAR-5
SK-MEL-2 = test system: SK-MEL-2

Structure (SMILES) | GI50 (CCRF-CEM) | GI50 (COLO 205) | GI50 (HCT-15) | GI50 (HOP-92) | GI50 (HT-29) | GI50 (KM12) | GI50 (LOX IMVI) | GI50 (MCF7) | GI50 (MOLT-4) | GI50 (NCI-H23) | GI50 (NCI-H460) | GI50 (OVCAR-8) | GI50 (RXF 393) | GI50 (SK-MEL-5) | GI50 (SNB-19) | GI50 (SW-620) | GI50 (UACC-257) | GI50 (EKVX) | GI50 (OVCAR-5) | GI50 (SK-MEL-2)
Cc1ccc(S(=O)(=O)NCCSS(=O)(=O)c2ccc(C)cc2)cc1 | 24.3 µM (inactive) | 56 µM (inactive) | 18.7 µM | > 100 µM (inactive) | 22.6 µM (inactive) | 28.1 µM (inactive) | 33.4 µM (inactive) | 22.3 µM (inactive) | 26.8 µM (inactive) | 57.4 µM (inactive) | 35.4 µM (inactive) | 37.9 µM (inactive) | 33.8 µM (inactive) | 20.7 µM (inactive) | 72.9 µM (inactive) | 19.5 µM (inactive) | 64.1 µM (inactive) |  |  | 
O=c1c(-c2ccccc2)c(SCCN2CCOCC2)n(-c2ccccc2)c(=S)n1-c1ccccc1 | > 100 µM (inactive) | > 100 µM (inactive) | > 100 µM | 25.2 µM (inactive) |  | > 100 µM (inactive) | > 100 µM (inactive) | 80.9 µM (inactive) | > 100 µM (inactive) | > 100 µM (inactive) | > 100 µM (inactive) | 63 µM (inactive) | 46.9 µM (inactive) | > 100 µM (inactive) |  | > 100 µM (inactive) | > 100 µM (inactive) | > 100 µM (inactive) | > 100 µM (inactive) | > 100 µM (inactive)
CCNC(=S)NNC(=O)c1nsc2ccccc12 | 31 µM (inactive) | > 100 µM (inactive) | 38.2 µM | 85.7 µM (inactive) | 72.1 µM (inactive) | 67.1 µM (inactive) | 64.9 µM (inactive) |  | 50.9 µM (inactive) | > 100 µM (inactive) | 50.1 µM (inactive) | > 100 µM (inactive) | 44.6 µM (inactive) | 64.6 µM (inactive) | > 100 µM (inactive) | > 100 µM (inactive) | > 100 µM (inactive) | 18.7 µM (inactive) | > 100 µM (inactive) | 2.88 µM (inactive)
COc1ccc2c(O)c3[n+](cc2c1OC)CCc1cc2c(cc1-3)OCO2 | 52.8 µM (inactive) | > 100 µM (inactive) | 84.3 µM | > 100 µM (inactive) | 63.2 µM (inactive) | 66.1 µM (inactive) | 69 µM (inactive) | 56.2 µM (inactive) | > 100 µM (inactive) | > 100 µM (inactive) | 79.4 µM (inactive) | > 100 µM (inactive) | 25.4 µM (inactive) | 99.1 µM (inactive) | > 100 µM (inactive) | 45.5 µM (inactive) | > 100 µM (inactive) | > 100 µM (inactive) | > 100 µM (inactive) | > 100 µM (inactive)
CS(C)(=O)=Nn1c(=O)n2n(c1=O)C1c3ccccc3C2c2ccccc21 | > 100 µM (inactive) | > 100 µM (inactive) | > 100 µM | > 100 µM (inactive) | > 100 µM (inactive) |  | > 100 µM (inactive) | > 100 µM (inactive) | > 100 µM (inactive) | > 100 µM (inactive) | > 100 µM (inactive) | > 100 µM (inactive) | > 100 µM (inactive) | 43.7 µM (inactive) | > 100 µM (inactive) | > 100 µM (inactive) | > 100 µM (inactive) | > 100 µM (inactive) | > 100 µM (inactive) | > 100 µM (inactive)
C1CSCCSCCSCCSC1 |  | > 100 µM (inactive) | > 100 µM | > 100 µM (inactive) | > 100 µM (inactive) | > 100 µM (inactive) | > 100 µM (inactive) | > 100 µM (inactive) | > 100 µM (inactive) | > 100 µM (inactive) | > 100 µM (inactive) | > 100 µM (inactive) | > 100 µM (inactive) | > 100 µM (inactive) | > 100 µM (inactive) | > 100 µM (inactive) | > 100 µM (inactive) | > 100 µM (inactive) | > 100 µM (inactive) | > 100 µM (inactive)
